According to patent publication US8575306B2, “Target and method for inhibition of bacterial RNA polymerase” (Rutgers, The State University of New Jersey, priority 2002, dated 2013):
Entries after “also recorded” stand apart in the source; their conditions may differ. Where a SMILES comes first, the peptide text is derived from it.

What was measured:
RNAP secondary channel = RNAP secondary channel (Escherichia coli, UniProt P0A8T7); experiment: Fluorescence-resonance-energy-transfer experiments with a fluorochrome-labelled MccJ25 derivative; assay type: binding; details: preliminary results
From the text: The results of Yuzenkova et al., (2002) J. Biol. Chem. 277, 50867-50875, although limited, also indicate that inhibition involves a multi-residue determinant within the RNAP secondary channel (five sites for substitutions conferring MccJ25-resistance). […] The RNAP secondary channel is a 25 Å long, ˜10-15 Å wide, fully enclosed tunnel through which NTPs must pass to access the RNAP active-center and NTP binding site (Zhang et al., (1999) Cell 98, 811-824; Cramer et al., (2001) Science 292, 1863-1876; and Ebright (2000) J. Mol. Biol. 304, 687-689).

RNAP = RNAP (Escherichia coli, UniProt P0A8T7); details: crude cell extracts; Delgado et al. (2001); cited from earlier work
[1] = system: Strain DH5α transformed with a pRL663 derivative (substituted RNAP β′ subunit); experiment: Minimum bacteriocidal concentration (MBC) assays, MccJ25-resistant rpoC mutants; assay type: cell-based, Escherichia coli; details: for MBC (minimum bacteriocidal concentration): 2 hr at 37° C.
Experimental: (RNAP β′ subunit comprises nearly one-half of all residues of RNAP and comprises all residues of the RNAP secondary channel). Mutagenesis using error-prone PCR was performed (Zhou (1991) Nucl. Acids Res. 19, 6052; Zhou et al., (1993) Proc. Natl. Acad. Sci. USA 90, 6081-6085) of five DNA segments spanning the length of a plasmid-borne rpoC gene (Table 1). Overall, 20 mutagenesis reactions were performed, ˜100,000 candidates were analyzed, and 22 independent plasmid-linked MccJ25-resistant mutants were isolated (Table 1). […] Complementation assays indicate that all 22 MccJ25-resistant mutants can complement an rpoC^ts mutant for growth at the non-permissive temperature, confirming that each encodes a β′ derivative functional in transcription—indeed sufficiently functional in transcription to support viability (Table 2, column 4).
A saturation mutagenesis using a set often “doped” oligodeoxyribonucleotide primers, designed to introduce all possible nucleotide substitutions at all positions of all codons for residues that line the RNAP secondary channel was performed (sequences in Table 3; methods essentially as in the following references (Ner et al., (1988) DNA 7, 127-134; Hermes et al., (1989) Gene 84, 143-151; and Niu et al., (1994) J. Mol. Biol. 243, 595-602). In total, 23 mutagenesis reactions were performed, ˜40,000 candidates were analyzed, and 105 independent plasmid-linked MccJ25-resistant mutants were isolated and characterized (Table 4).

RNAP holoenzyme = target: T1, RNAP holoenzyme (Escherichia coli, UniProt P0A8T7); experiment: Electrophoretic mobility shift assays (open-complex formation, lacUV5 promoter); assay type: biochemical; details: MccJ25 at 1, 10, or 100 μM
T1 construct: RNAP holoenzyme was prepared from, strain XE54/pREII-NHα; made in house; host or cells: E. coli strain XE54/pREII-NHα
T1 sequence (P0A7Z4 whole entry): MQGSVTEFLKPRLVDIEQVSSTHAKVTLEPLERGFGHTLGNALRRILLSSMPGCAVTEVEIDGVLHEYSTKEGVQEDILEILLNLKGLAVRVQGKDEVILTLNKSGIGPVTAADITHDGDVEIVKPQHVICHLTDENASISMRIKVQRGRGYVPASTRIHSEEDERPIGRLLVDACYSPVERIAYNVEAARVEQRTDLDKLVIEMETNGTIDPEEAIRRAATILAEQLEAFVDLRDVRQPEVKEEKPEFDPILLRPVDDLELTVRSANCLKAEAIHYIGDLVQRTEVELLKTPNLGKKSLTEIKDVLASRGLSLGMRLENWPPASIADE
T1 sequence (P0A800 whole entry, further chain): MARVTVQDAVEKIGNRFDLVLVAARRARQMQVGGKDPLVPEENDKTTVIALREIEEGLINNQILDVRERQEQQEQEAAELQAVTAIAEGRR
T1 sequence (P00579 whole entry, further chain): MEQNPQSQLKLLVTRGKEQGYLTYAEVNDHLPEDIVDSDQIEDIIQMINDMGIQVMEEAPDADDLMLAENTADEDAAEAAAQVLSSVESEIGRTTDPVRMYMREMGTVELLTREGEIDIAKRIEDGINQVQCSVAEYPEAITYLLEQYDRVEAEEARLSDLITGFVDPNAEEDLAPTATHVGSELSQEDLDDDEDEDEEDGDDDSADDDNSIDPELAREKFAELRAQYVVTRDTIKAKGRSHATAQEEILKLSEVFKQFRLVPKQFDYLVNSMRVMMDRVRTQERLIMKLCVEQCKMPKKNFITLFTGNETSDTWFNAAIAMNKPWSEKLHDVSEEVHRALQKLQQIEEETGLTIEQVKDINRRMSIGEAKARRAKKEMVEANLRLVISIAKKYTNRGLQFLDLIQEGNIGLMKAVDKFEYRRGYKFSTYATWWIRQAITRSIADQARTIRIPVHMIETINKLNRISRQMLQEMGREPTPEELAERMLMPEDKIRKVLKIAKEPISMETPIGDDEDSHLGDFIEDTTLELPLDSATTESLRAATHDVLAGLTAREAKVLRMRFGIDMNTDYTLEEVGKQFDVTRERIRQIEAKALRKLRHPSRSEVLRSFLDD
T1 sequence (P0A8T7 whole entry): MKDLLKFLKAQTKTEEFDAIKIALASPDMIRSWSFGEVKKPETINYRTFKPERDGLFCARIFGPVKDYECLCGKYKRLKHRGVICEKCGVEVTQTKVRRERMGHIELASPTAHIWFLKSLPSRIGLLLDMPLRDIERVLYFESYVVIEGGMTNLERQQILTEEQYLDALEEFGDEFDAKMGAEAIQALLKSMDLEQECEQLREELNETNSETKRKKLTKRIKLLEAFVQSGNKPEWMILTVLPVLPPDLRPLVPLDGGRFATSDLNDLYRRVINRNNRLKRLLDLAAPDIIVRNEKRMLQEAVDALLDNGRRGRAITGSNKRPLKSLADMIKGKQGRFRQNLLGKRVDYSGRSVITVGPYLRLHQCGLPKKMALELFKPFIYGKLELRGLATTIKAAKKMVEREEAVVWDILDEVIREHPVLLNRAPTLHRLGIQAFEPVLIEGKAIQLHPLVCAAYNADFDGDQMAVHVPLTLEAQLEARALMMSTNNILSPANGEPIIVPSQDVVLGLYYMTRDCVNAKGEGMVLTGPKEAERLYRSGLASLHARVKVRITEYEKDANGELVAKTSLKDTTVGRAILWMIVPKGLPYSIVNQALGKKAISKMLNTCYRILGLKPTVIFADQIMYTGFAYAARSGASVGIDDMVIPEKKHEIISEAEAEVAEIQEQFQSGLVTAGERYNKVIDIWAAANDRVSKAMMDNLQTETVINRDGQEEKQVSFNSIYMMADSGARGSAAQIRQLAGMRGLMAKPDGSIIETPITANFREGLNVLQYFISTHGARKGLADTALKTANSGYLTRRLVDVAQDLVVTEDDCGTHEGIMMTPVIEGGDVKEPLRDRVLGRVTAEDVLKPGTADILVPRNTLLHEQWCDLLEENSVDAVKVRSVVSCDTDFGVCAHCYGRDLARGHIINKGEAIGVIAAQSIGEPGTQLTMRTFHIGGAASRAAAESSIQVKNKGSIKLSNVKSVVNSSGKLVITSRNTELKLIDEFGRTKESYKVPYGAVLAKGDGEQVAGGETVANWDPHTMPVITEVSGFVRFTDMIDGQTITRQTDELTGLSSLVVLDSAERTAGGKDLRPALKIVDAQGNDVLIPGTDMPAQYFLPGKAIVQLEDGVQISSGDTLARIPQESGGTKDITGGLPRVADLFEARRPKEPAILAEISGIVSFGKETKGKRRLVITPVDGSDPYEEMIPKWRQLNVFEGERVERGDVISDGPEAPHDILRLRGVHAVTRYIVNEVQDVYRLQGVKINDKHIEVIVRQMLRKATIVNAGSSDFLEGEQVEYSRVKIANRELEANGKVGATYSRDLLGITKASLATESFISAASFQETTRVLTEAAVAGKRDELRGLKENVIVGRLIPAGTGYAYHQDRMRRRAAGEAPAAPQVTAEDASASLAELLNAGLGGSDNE
T1 sequence (P0A8V2 whole entry, further chain): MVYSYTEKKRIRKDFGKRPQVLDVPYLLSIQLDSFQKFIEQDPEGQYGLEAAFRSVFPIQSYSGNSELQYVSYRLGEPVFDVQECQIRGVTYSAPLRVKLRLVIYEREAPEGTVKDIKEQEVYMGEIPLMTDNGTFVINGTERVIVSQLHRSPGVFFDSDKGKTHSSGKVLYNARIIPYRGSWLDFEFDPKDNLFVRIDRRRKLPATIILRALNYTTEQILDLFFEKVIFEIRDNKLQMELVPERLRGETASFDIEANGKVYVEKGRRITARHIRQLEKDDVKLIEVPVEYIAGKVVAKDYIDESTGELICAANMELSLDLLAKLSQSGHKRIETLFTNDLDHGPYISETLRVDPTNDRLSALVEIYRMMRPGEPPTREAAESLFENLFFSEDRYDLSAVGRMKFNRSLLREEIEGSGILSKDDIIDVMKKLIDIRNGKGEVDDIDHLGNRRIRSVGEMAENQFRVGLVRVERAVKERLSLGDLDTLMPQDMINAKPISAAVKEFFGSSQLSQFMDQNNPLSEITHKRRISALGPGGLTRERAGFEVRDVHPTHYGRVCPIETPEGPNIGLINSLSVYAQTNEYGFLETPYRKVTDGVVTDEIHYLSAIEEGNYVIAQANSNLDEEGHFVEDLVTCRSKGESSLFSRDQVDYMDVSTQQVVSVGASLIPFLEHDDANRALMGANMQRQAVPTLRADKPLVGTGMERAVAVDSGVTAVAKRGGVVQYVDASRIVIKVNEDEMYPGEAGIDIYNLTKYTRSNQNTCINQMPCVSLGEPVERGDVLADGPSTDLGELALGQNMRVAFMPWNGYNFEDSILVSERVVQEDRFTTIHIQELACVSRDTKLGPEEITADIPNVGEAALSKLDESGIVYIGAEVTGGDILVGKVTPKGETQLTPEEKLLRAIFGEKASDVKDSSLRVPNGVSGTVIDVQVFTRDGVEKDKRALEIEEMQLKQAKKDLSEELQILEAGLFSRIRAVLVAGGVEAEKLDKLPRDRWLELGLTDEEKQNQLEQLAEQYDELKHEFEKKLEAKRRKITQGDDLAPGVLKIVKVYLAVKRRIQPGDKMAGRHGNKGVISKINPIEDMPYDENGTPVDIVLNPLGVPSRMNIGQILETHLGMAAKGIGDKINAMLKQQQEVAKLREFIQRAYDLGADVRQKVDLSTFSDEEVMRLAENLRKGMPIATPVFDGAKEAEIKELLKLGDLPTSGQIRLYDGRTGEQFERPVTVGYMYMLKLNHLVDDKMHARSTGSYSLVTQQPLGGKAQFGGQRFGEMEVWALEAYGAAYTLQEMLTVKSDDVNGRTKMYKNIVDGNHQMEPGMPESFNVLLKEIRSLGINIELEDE
Experimental: Following 15 min at 37° C., 0.5 μl 1 mg/ml heparin was added (to disrupt non-specific complexes (Cech and McClure (1980) Biochem. 19, 2440-2447)), and, following a further 2 min at 37° C., reaction mixtures were applied to 5% polyacrylamide slab gels (30:1 acrylamide/bisacrylamide; 6×9×0.1 cm) and electrophoresed in 90 mM Tris-borate (pH 8.0) and 0.2 mM EDTA (20 V/cm; 30 mm at 37° C.) and analyzed using an x/y fluorescence scanner (Storm 860; Molecular Dynamics, Inc.).

CC[C@H](C)[C@H](NC(=O)CNC(=O)[C@@H](NC(=O)[C@H](Cc1ccccc1)NC(=O)[C@H](Cc1ccc(O)cc1)NC(=O)[C@@H]1CCC(=O)NCC(=O)NCC(=O)N[C@@H](C)C(=O)NCC(=O)N[C@@H](Cc2c[nH]cn2)C(=O)N[C@@H](C(C)C)C(=O)N2CCC[C@H]2C(=O)N1)C(C)C)C(=O)NCC(=O)N[C@H](C(=O)N1CCC[C@H]1C(=O)N[C@H](C(=O)N[C@@H](CO)C(=O)N[C@@H](Cc1ccccc1)C(=O)N[C@@H](Cc1ccc(O)cc1)C(=O)NCC(=O)O)[C@@H](C)CC)[C@@H](C)O [MccJ25] (HELM PEPTIDE1{G.G.A.G.H.V.P.E.Y.F.V.G.I.G.T.P.I.S.F.Y.G}$PEPTIDE1,PEPTIDE1,1:R1-8:R3$$$V2.0)
binding site on RNAP (RNAP secondary channel): binds within the RNAP secondary channel | inhibition of RNAP-dependent transcription (RNAP): inhibits | increase in MBC ([1]; 18 of 22 MccJ25-resistant mutants from random mutagenesis): ≥ 50 fold | increase in MBC ([1]; all 22 MccJ25-resistant mutants from random mutagenesis): ≥ 50 fold | MBC (minimum bacteriocidal concentration) ([1]; β′ 428 Thr->Asn): 0.5 mg/mi | MBC (minimum bacteriocidal concentration) ([1]; β′ 428 Thr->Ile): 0.5 mg/mi | MBC (minimum bacteriocidal concentration) ([1]; β′ 429 Leu->Gln): 0.5 mg/mi | MBC (minimum bacteriocidal concentration) ([1]; β′ 430 His->Tyr): 0.5 mg/mi | MBC (minimum bacteriocidal concentration) ([1]; β′ 498 Pro->Gln): 1 mg/mi | MBC (minimum bacteriocidal concentration) ([1]; β′ 498 Pro->Leu): 1 mg/mi | MBC (minimum bacteriocidal concentration) ([1]; β′ 503 Ser->Pro): 0.5 mg/mi | MBC (minimum bacteriocidal concentration) ([1]; β′ 503 Ser->Tyr): 0.5 mg/mi | MBC (minimum bacteriocidal concentration) ([1]; β′ 504 Gln->Arg): 0.5 mg/mi | MBC (minimum bacteriocidal concentration) ([1]; β′ 504 Gln->Glu): 0.5 mg/mi | MBC (minimum bacteriocidal concentration) ([1]; β′ 508 Leu->Val): 0.05 mg/mi | MBC (minimum bacteriocidal concentration) ([1]; β′ 680 Asn->Lys): 0.5 mg/mi | MBC (minimum bacteriocidal concentration) ([1]; β′ 684 Asp->Ala): 1 mg/mi | MBC (minimum bacteriocidal concentration) ([1]; β′ 684 Asp->Glu): 0.5 mg/mi | MBC (minimum bacteriocidal concentration) ([1]; β′ 684 Asp->Tyr): 0.5 mg/mi | MBC (minimum bacteriocidal concentration) ([1]; β′ 684 Asp->Vai): 0.5 mg/mi | MBC (minimum bacteriocidal concentration) ([1]; β′ 732 Gly->Asp): 0.1 mg/mi | MBC (minimum bacteriocidal concentration) ([1]; β′ 733 Ser->Phe): 0.1 mg/mi | MBC (minimum bacteriocidal concentration) ([1]; β′ 733 Ser->Tyr): 0.1 mg/mi | MBC (minimum bacteriocidal concentration) ([1]; β′ 733 Ser->Val): 0.5 mg/mi | MBC (minimum bacteriocidal concentration) ([1]; β′ 735 Ala->Δ): 1 mg/mi | MBC (minimum bacteriocidal concentration) ([1]; β′ 736 Gln->Pro): 0.5 mg/mi | MBC (minimum bacteriocidal concentration) ([1]; β′ 738 Arg->Leu): 0.05 mg/mi | MBC (minimum bacteriocidal concentration) ([1]; β′ 744 Arg->His): 0.05 mg/mi | MBC (minimum bacteriocidal concentration) ([1]; β′ 744 Arg->Pro): 0.05 mg/mi | MBC (minimum bacteriocidal concentration) ([1]; β′ 748 Ala->Pro): 0.1 mg/mi | MBC (minimum bacteriocidal concentration) ([1]; β′ 775 Ser->Cys): 0.5 mg/mi | MBC (minimum bacteriocidal concentration) ([1]; β′ 776 Thr->Ile): 0.5 mg/mi | MBC (minimum bacteriocidal concentration) ([1]; β′ 777 His->Pro): 0.5 mg/mi | MBC (minimum bacteriocidal concentration) ([1]; β′ 777 His->Tyr): 1 mg/mi | MBC (minimum bacteriocidal concentration) ([1]; β′ 779 Ala->Gly): 0.5 mg/mi | MBC (minimum bacteriocidal concentration) ([1]; β′ 779 Ala->Pro): 0.5 mg/mi | MBC (minimum bacteriocidal concentration) ([1]; β′ 779 Ala->Thr): 1 mg/mi | MBC (minimum bacteriocidal concentration) ([1]; β′ 780 Arg->Cys): 1 mg/mi | MBC (minimum bacteriocidal concentration) ([1]; β′ 782 Gly->Ala): 1 mg/mi | MBC (minimum bacteriocidal concentration) ([1]; β′ 783 Leu->Pro): 0.1 mg/mi | MBC (minimum bacteriocidal concentration) ([1]; β′ 784 Ala->Glu): 0.5 mg/mi | MBC (minimum bacteriocidal concentration) ([1]; β′ 785 Asp->Gly): 0.5 mg/mi | MBC (minimum bacteriocidal concentration) ([1]; β′ 786 Thr->Ala): 0.5 mg/mi | MBC (minimum bacteriocidal concentration) ([1]; β′ 786 Thr->Ile): 0.5 mg/mi | MBC (minimum bacteriocidal concentration) ([1]; β′ 788 Leu->Met): 1 mg/mi | MBC (minimum bacteriocidal concentration) ([1]; β′ 789 Lys->Arg): 0.5 mg/mi | MBC (minimum bacteriocidal concentration) ([1]; β′ 789 Lys->Asn): 1 mg/mi | MBC (minimum bacteriocidal concentration) ([1]; β′ 789 Lys->Gln): 1 mg/mi | MBC (minimum bacteriocidal concentration) ([1]; β′ 790 Thr->Ala): 1 mg/mi | MBC (minimum bacteriocidal concentration) ([1]; β′ 790 Thr->Asn): 0.5 mg/mi | MBC (minimum bacteriocidal concentration) ([1]; β′ 790 Thr->Ile): 1 mg/mi | MBC (minimum bacteriocidal concentration) ([1]; β′ 790 Thr->Ser): 0.5 mg/mi | MBC (minimum bacteriocidal concentration) ([1]; β′ 922 Cys->Tyr): 0.5 mg/mi | MBC (minimum bacteriocidal concentration) ([1]; β′ 926 Pro->Ser): 0.5 mg/mi | MBC (minimum bacteriocidal concentration) ([1]; β′ 927 Gly->Cys): 1 mg/mi | MBC (minimum bacteriocidal concentration) ([1]; β′ 927 Gly->Ser): 1 mg/mi | MBC (minimum bacteriocidal concentration) ([1]; β′ 930 Leu->Met): 1 mg/mi | MBC (minimum bacteriocidal concentration) ([1]; β′ 931 Thr->Ala): 1 mg/mi | MBC (minimum bacteriocidal concentration) ([1]; β′ 931 Thr->Ile): 1 mg/mi | MBC (minimum bacteriocidal concentration) ([1]; β′ 932 Met->Ile): 1 mg/mi | MBC (minimum bacteriocidal concentration) ([1]; β′ 933 Arg->Cys): 1 mg/mi | MBC (minimum bacteriocidal concentration) ([1]; β′ 1136 Gly->Ala): 0.5 mg/mi | MBC (minimum bacteriocidal concentration) ([1]; β′ 1136 Gly->Cys): 1 mg/mi | MBC (minimum bacteriocidal concentration) ([1]; β′ 1137 Gly->Aia): 0.5 mg/mi | MBC (minimum bacteriocidal concentration) ([1]; β′ 1137 Gly->Arg): 1 mg/mi | MBC (minimum bacteriocidal concentration) ([1]; β′ 1240 Val->Glu): 0.5 mg/mi | MBC (minimum bacteriocidal concentration) ([1]; β′ 1241 Tyr->Cys): 0.1 mg/mi | MBC (minimum bacteriocidal concentration) ([1]; β′ 1241 Tyr->His): 0.1 mg/mi | MBC (minimum bacteriocidal concentration) ([1]; β′ 1241 Tyr->Ser): 0.1 mg/mi | MBC (minimum bacteriocidal concentration) ([1]; β′ 1244 Gln->Glu): 0.1 mg/mi | MBC (minimum bacteriocidal concentration) ([1]; β′ 1244 Gln->Leu): 0.5 mg/mi | MBC (minimum bacteriocidal concentration) ([1]; β′ 1244 Gln->Pro): 0.1 mg/mi | MBC (minimum bacteriocidal concentration) ([1]; β′ 1247 Lys->Gln): 0.1 mg/mi | MBC (minimum bacteriocidal concentration) ([1]; β′ 1247 Lys->Glu): 0.1 mg/mi | MBC (minimum bacteriocidal concentration) ([1]; β′ 1248 lle->Ser): 0.1 mg/mi | MBC (minimum bacteriocidal concentration) ([1]; β′ multiple-substitution mutant 493 Pro->Thr, 498 Pro->Thr): 0.1 mg/mi | MBC (minimum bacteriocidal concentration) ([1]; β′ multiple-substitution mutant 732 Gly->Asp, 733 Ser->Ala): 0.1 mg/mi | MBC (minimum bacteriocidal concentration) ([1]; β′ multiple-substitution mutant 732 Gly->Asp, 735 Gly->Thr): 0.5 mg/mi | MBC (minimum bacteriocidal concentration) ([1]; β′ multiple-substitution mutant 733 Ser->Val, 734 Ala->Gly): 0.1 mg/mi | MBC (minimum bacteriocidal concentration) ([1]; β′ multiple-substitution mutant 777 His->Ser, 778 Gly->Ala): 0.5 mg/mi | effect on formation of open complex (RNAP holoenzyme): no effect; also recorded: does not inhibit
